Columns and labels:
[1] = tested on: DLD-1 BRCA2−/− (HD 105-007); experiment: Anti-proliferation assay 144 h (ATPlite); assay type: cell-based; conditions: for Fold Sensitivity of BRCA2^-/- line: BRCA2^-/- line relative to DLD-1 Parental line; for Fold Sensitivity of BRCA2^-/- line / IC50: 144 h proliferation assay; for IC50: Homo sapiens, DLD-1, ATPlite, read-out: Relative IC50, DLD-1 BRCA2^-/-
Protocol: (§1) The sensitivity of DLD-1 Parental and BRCA2−/− isogenic cell lines Compound I and Compounds 1 and 7-10 were evaluated in 144 h proliferations assays. Cells were seeded into 384-well plates in McCoy's 5A medium supplemented with 10% FBS at the seeding densities indicated below and allowed to adhere overnight prior to addition of compound or vehicle control. Compounds were weighed out and stock solutions in DMSO were made immediately prior to treatment of cells. Serial dilutions of compounds were prepared in DMSO and diluted in media before being added to cells in quadruplicate to give the final concentrations indicated on graphs (10 μM top concentration, 9-point semi-log dilution series, 0.2% DMSO final concentration for all treatments). Cells were incubated with compounds for 144 h at 37° C., 5% C02 in a humidified atmosphere. At the assay endpoint, ATPlite (Perkin Elmer) reagent was added at a volume equal to the volume of cell culture medium already present in each well and the plates processed as per the manufacturer's instructions. Media only background values were subtract and ted and the data was analyzed using a 4-parameter logistic equation in GraphPad Prism. DLD-1 Parental (HD PAR-008) DLD-1 BRCA2−/− (HD 105-007) used.

[2] = tested on: DLD-1 Parental (HD PAR-008); experiment: Anti-proliferation assay 144 h (ATPlite); assay type: cell-based; conditions: Homo sapiens, 144 h proliferation assay, * = value should be considered as approximate, read-out: Relative IC50, DLD-1 Parental
Protocol: as §1

[3] = Stability of stock solutions and of spiked human plasma (LC/MS/MS method validation); assay type: physicochemical; conditions: refrigeration (2° C. to 8° C.)
Protocol: A reference standard stock solution of Compound I was prepared by weighing the reference standard and dissolving it in a solution of 50:50:0.1 (v/v) mixture of ACN:deionized water:formic acid, followed by vortex-mixing and sonication. This stock solution was used for preparation of the calibration standards. Another stock solution of Compound I was prepared following the same procedure and was used for preparation of the QC samples. Both stock solutions were prepared previously and stored at refrigeration (2° C. to 8° C.) prior to use on the day of assay. […] Both solutions were used within the established stability timeframe.
The internal standard stock solution was previously prepared by weighing Compound A (2-(4-Methyl-piperazin-1-yl)-5-oxo-5H-7-thia-1,11b-diaza-benzo[c]fluorene-6-carboxylic acid (5-methyl-pyrazin-2-ylmethyl)-amide) and dissolving it in a solution of 50:50:0.1 (v/v) mixture of ACN:deionized water:formic acid. This stock solution was stored at refrigeration (2° C. to 8° C.) prior to use. […] This solution was used within the established stability timeframe. On the day of assay, this solution was further diluted with a solution of 50:50:0.1 (v/v) mixture of ACN:deionized water:formic acid into a solution for spiking.
This assay method was based on a nominal quantitation range of 5.00 ng/mL to 5000 ng/mL. Validation results met their acceptance criteria for the assessments of calibration range, assay accuracy and precision, hemolysis matrix effects, lipidemic matrix effects, selectivity and specificity, dilution integrity, and assay ruggedness with respect to changing analysts and instrument, and over the run time anticipated for a prospective test sample run. Chromatographic carryover was not observed. A 6-minute assay run time was validated. […] (−63° C. to −77° C.) and following 4 cycles of freeze/thaw.

Row | SMILES | IC50 [1] [nM] | stock solution stable (50:50:0.1 ACN:deionized water:formic acid) [3] [days] | sensitivity of the BRCA2 null line relative to the parental line (in words) ([1]; 144 h) | Fold Sensitivity of BRCA2^-/- line [1] | IC50 [2] [nM]
1 | Cc1cnc(CNC(=O)c2c(=O)c3ccc(N4CCC[N+](C)([O-])CC4)nc3n3c2sc2ccccc23)cn1 (centres unmarked) [Compound 9, 2-(4-methyl-4-oxidodiazepan-4-ium-1-yl)-N-((5-methylpyrazin-2-yl)methyl)-5-oxo-5H-benzo[4,5]thiazolo[3,2-a][1,8]naphthyridine-6-carboxamide] | 1590 | – | – | 5.5 | ~8780
2 | Cc1cnc(C(=O)NC(=O)c2c(=O)c3ccc(N4CCCN(C)CC4)nc3n3c2sc2ccccc23)cn1 [Compound 10, 2-(4-methyl-1,4-diazepan-1-yl)-N-((5-methylpyrazin-2-yl)carbonyl)-5-oxo-5H-benzo[4,5]thiazolo[3,2-a][1,8]naphthyridine-6-carboxamide] | 620 | – | – | 2.5 | 1580
3 | Cc1cnc(CNC(=O)c2c(=O)c3ccc(N4CCN(C)CC4)nc3n3c2sc2ccccc23)cn1 [Compound A, 2-(4-Methyl-piperazin-1-yl)-5-oxo-5H-7-thia-1,11b-diaza-benzo[c]fluorene-6-carboxylic acid (5-methyl-pyrazin-2-ylmethyl)-amide, reference compound] | – | 384 | – | – | –

More lines, in order of falling IC50 [1], values ahead:

Row | IC50 [1] [nM] | stock solution stable (50:50:0.1 ACN:deionized water:formic acid) [3] [days] | SMILES | sensitivity of the BRCA2 null line relative to the parental line (in words) ([1]; 144 h) | Fold Sensitivity of BRCA2^-/- line [1] | IC50 [2] [nM]
4 | 560 | – | Cc1cnc(CNC(=O)c2c(=O)c3ccc(N4CCCNCC4)nc3n3c2sc2ccccc23)cn1 [Compound 7, 2-(1,4-diazepan-1-yl)-N-((5-methylpyrazin-2-yl)methyl)-5-oxo-5H-benzo[4,5]thiazolo[3,2-a][1,8]naphthyridine-6-carboxamide] | – | 21 | ~12000
5 | 7.2 | – | CN1CCCN(c2ccc3c(=O)c(C(=O)NCCCN4CCCCCC4=O)c4sc5ccccc5n4c3n2)CC1 [Compound 8, 2-(4-methyl-1,4-diazepan-1-yl)-N-(3-(2-oxoazepan-1-yl)propyl)-5-oxo-5H-benzo[4,5]thiazolo[3,2-a][1,8]naphthyridine-6-carboxamide] | – | 74 | 530
6 | 4.7 | – | CN1CCCN(c2ccc3c(=O)c(C(N)=O)c4sc5ccccc5n4c3n2)CC1 [Compound 1, 2-(4-methyl-1,4-diazepan-1-yl)-5-oxo-5H-benzo[4,5]thiazolo[3,2-a][1,8]naphthyridine-6-carboxamide] | extremely sensitive | 400 | 1880

Reference: patent US11524012B1, “Quinolone analogs and their salts, compositions, and method for their use” (Senhwa Biosciences, Inc., priority 2018, dated 2022)
